{
  "source": "patent US20150087004A1",
  "about": "“Microfabricated 3D Cell Culture System” (The Trustees of the University of Pennsylvania, priority 2012, published 2015)",
  "tested_on": "Human umbilical vein endothelial cells (HUVECs)",
  "experiment": "Pro-angiogenic factor screening: directed invasion and sprouting from endothelialized parent vessel in 3D cell culture device",
  "type": "cell-based",
  "details": "for EC invasion into the matrix (single cell or collective cell invasion): factor added individually to source channel, over four days, 75 ng/mL (S1P 500 nM); for mode of cell migration / sprouting response: factor or cocktail in source channel, gradient across collagen matrix",
  "text": "Examination the processes of angiogenic invasion and sprouting from an existing vessel in accordance with the disclosed subject matter will be described, with reference to FIG. 11A-D through FIG. 14A-F, for purpose of illustration and not limitation. Generally, a device in accordance with an embodiment of the disclosed subject matter can be prepared with an endothelium lining a cylindrical channel, surrounded by matrix, and exposed to a gradient of angiogenic factors emanating from a parallel source channel 150a. The device can be assembled by casting Type I collagen into a PDMS mold/gasket with two parallel needles held across the casting chamber. Upon collagen polymerization, the needles can be extracted to create hollow cylindrical channels in the collagen matrix 160. Endothelial cells (ECs) can be injected into one of the channels, allowing them to attach on the interior wall and form a confluent endothelium or “parent vessel” 150a. Flow can be maintained through both channels and media containing angiogenic factors can subsequently be added to the second channel to establish a gradient across the collagen matrix to the endothelium, as illustrated in FIG. 11B.\nIn a first example, the impact of various pro-angiogenic factors on directed invasion and sprouting from the parent vessel is examined. Six common factors associated with angiogenesis in the literature were selected: basic fibroblast growth factor (bFGF), hepatocyte growth factor (HGF), vascular endothelial growth factor (VEGF), monocyte chemotactic protein-1 (MCP-1), sphingosine-1-phosphate (S1P), and phorbol 12-myristate 13-acetate (PMA). After these factors were added individually to the non-endothelialized source channel, phase-contrast and confocal microscopy were used to assess the organization and development of EC invasion over four days.\nIn connection with the examples described herein, an exemplary device in accordance with the disclosed subject matter was fabricated from two patterned layers of poly(dimethylsiloxane) (PDMS; Sylgard 184; Dow-Corning) bonded to each other and sealed against a glass substrate (e.g., as depicted in FIG. 11A). The two PDMS layers were cast or double-cast from templates originally generated using standard photolithography of SU-8 on silicon wafers. To assemble the device, the bottom layer was first sealed to a glass coverslip. The top and bottom layers were then treated with oxygen plasma, bonded together, and cured at 110° C. overnight. Assembled devices then were treated with oxygen plasma, immersed in 0.1 mg/ml poly-L-lysine (Sigma) for 1 hr, 1% glutaraldehyde (Sigma) for 1.5 hr, washed several times with ddH2O, sterilized with UV light for 15 min, and soaked in 70% ethanol for 1 hr. To mold cylindrical channels, two 400 μm diameter acupuncture needles (Hwato) were inserted into parallel grooves at the top of the bottom layer and through the middle rectangular chamber approximately 200 μm above the glass coverslip surface. Rat tail collagen type I (2.5 mg/ml; BD Biosciences) was pipetted into the middle chamber and allowed to polymerize at 37° C. for 30 min. Excess collagen was subsequently aspirated from the fluid reservoirs feeding from the middle chamber. Devices were then covered with EGM-2 (Lonza) before the needles were extracted as described herein.\nCells were cultured and seeded in accordance with the disclosed subject matter into the device described in connection with the first example. Human umbilical vein endothelial cells (HUVECs) (Lonza) and human microvascular endothelial cells (HMVECs) (Lonza) were cultured in EGM-2 and EGM-2MV, respectively.",
  "data": [
    {"molecule": "monocyte chemotactic protein-1 [MCP-1]", "values": [
      {"measurement": "EC invasion into the matrix (single cell or collective cell invasion)", "value": "did not induce significant invasion"}
    ]},
    {"molecule": "basic fibroblast growth factor [bFGF]", "values": [
      {"measurement": "EC invasion into the matrix (single cell or collective cell invasion)", "value": "did not induce significant invasion"}
    ]},
    {"molecule": "vascular endothelial growth factor [VEGF]", "values": [
      {"measurement": "EC invasion into the matrix (single cell or collective cell invasion)", "value": "did not induce significant invasion"}
    ]},
    {"molecule": "CCCCCCCCCCCCCC(=O)O[C@@H]1[C@@H](C)[C@@]2(O)[C@@H](C=C(CO)C[C@]3(O)C(=O)C(C)=C[C@@H]23)[C@@H]2C(C)(C)[C@]12OC(C)=O", "note": "[PMA, phorbol 12-myristate 13-acetate]", "values": [
      {"measurement": "EC invasion into the matrix (single cell or collective cell invasion)", "value": "substantial directed invasion"},
      {"measurement": "mode of cell migration / sprouting response", "value": "collective cell migration that manifested itself in the form of sparse, long, multi-cellular sprouts"}
    ]},
    {"molecule": "hepatocyte growth factor [HGF]", "values": [
      {"measurement": "EC invasion into the matrix (single cell or collective cell invasion)", "value": "did not induce significant invasion"}
    ]},
    {"molecule": "CCCCCCCCCCCCC/C=C/[C@@H](O)[C@@H](N)COP(=O)(O)O", "note": "[S1P, sphingosine-1-phosphate]", "values": [
      {"measurement": "EC invasion into the matrix (single cell or collective cell invasion)", "value": "substantial directed invasion"},
      {"measurement": "mode of cell migration / sprouting response", "value": "chemotactic migration primarily of single cells"}
    ]}
  ]
}
